# Test results taken from patent publication US11566004B2, “Process for the preparation of bromodomain inhibitor” (Celgene Quanticel Research, Inc., priority 2018, dated 2023).
# Read-outs that look alike come from different tables or passages of the source.
# Tests used:
# [1] = Solid phase and solution stability of boronic esters; type: physicochemical
# Source text: The final bond forming step to Compound 1 is a Suzuki-Miyaura coupling between Compounds 2 and 3, as shown in Scheme 3 below (Norio, M. and Suzuki, A., Chem. Rev., 95(7), 2457-2483 (1995)). […] The pinacolatoboronate of the O-alkyl phenol, Compound 7, had acceptable solid phase stability and could be isolated via crystallization.
# This was particularly problematic as the isolation process involved a solvent exchange from 2-MeTHF (2-methyl tetrahydrofuran) to iPrOAc (isopropyl acetate), which is not a fast unit operation on scale.
# [2] = Solubility of Compound 1 in process solvents (ICH class solvents, NMP, DMAc, formic acid); type: physicochemical; conditions: for solubility: organic solvent or mixture
# Source text: The final isolation of Compound 1 requires a polish filtration. For this, the batch must be completely soluble.
# The solubility curve of Compound 1 in formic acid-Water is quite steep (see FIG. 7), which enables a volumetrically efficient process.
# [3] = molecular target: bromodomain 4 (BRD4) (Homo sapiens, UniProt O60885); conditions: preliminary in vitro studies; see U.S. Pat. No. 9,034,900; cited from earlier work
# [4] = test system: Raji, human Burkitts lymphoma cells; conditions: see U.S. Pat. No. 9,034,900; cited from earlier work
# [5] = test system: HL-60, human proleukemia cells; conditions: HL-60 cells; see U.S. Pat. No. 9,034,900; cited from earlier work
# [6] = test system: NCI-H460, human non-small cell lung cancer cells; conditions: see U.S. Pat. No. 9,034,900; cited from earlier work
# [7] = Solubility of bromination starting material, product and impurity in CH2Cl2 (with or without 10% H2SO4); type: physicochemical; conditions: for Solubility in CH2Cl2, 10% H2SO4, 10° C.: CH2Cl2 with 10% H2SO4, 10° C.; for Solubility in CH2Cl2, 10% H2SO4, 20° C.: CH2Cl2 with 10% H2SO4, 20° C.; for Solubility in CH2Cl2, 10% H2SO4, 30° C.: CH2Cl2 with 10% H2SO4, 30° C.
# Description: This solubility difference is exploited by performing the reaction at a high concentration to drive Compound 5 out of solution once formed, thereby minimizing its ability to react further with the brominating reagent to form Compound 5-a diBr. The reaction is seeded with Compound 5 to initiate its crystallization.
Structure (SMILES),"Solubility in CH2Cl2, 10° C. [7] [mg/mL]","Solubility in CH2Cl2, 20° C. [7] [mg/mL]","Solubility in CH2Cl2, 30° C. [7] [mg/mL]","Solubility in CH2Cl2, 10% H2SO4, 10° C. [7] [mg/mL]","Solubility in CH2Cl2, 10% H2SO4, 20° C. [7] [mg/mL]","Solubility in CH2Cl2, 10% H2SO4, 30° C. [7] [mg/mL]",other results
CC1(C)OB(c2cc(S(C)(=O)=O)ccc2OCC2CC2)OC1(C)C [Compound 7],,,,,,,"Solution stability ([1]; in solution, decomposing primarily to proteodeborylated compound 10): poor; Solid phase stability ([1]; solid phase): acceptable"
"Cn1cc(-c2cc(S(C)(=O)=O)ccc2OCC2CC2)c2ccccc2c1=O [Compound 1, 4-[2-(cyclopropylmethoxy)-S-methylsulfonylphenyl]-2-methylisoquinolin-1-one]",,,,,,,"Solubility in almost all ICH Class 3 and common Class 2 (e.g. THF, MeCN) solvents ([2]; ICH Class 3 and common Class 2 solvents): low solubility; solubility ([2]; N-methyl-2-pyrrolidone (NMP), read-out: Solubility in N-methyl-2-pyrrolidone (NMP)): > 50 mg/mL; solubility ([2]; dimethylacetamide (DMAc), read-out: Solubility in dimethylacetamide (DMAc)): > 50 mg/mL; solubility ([2]; formic acid, 20° C., read-out: Solubility in formic acid): > 250 mg/mL; Solubility in a warm MeCN-water mix ([2]; warm MeCN-water mix): reasonable solubility; BRD4 inhibition [3]: observed; other cancer-related inhibitory activity [4]: observed; other cancer-related inhibitory activity [5]: observed; other cancer-related inhibitory activity [6]: observed"
CS(=O)(=O)c1ccc(O)c(Br)c1 [Compound 5],6,8,20,5,8,11,
"CS(=O)(=O)c1ccc(O)cc1 [Compound 4, 4-(methylsulfonyl)phenol]",30,46,198,19,51,390,
CS(=O)(=O)c1cc(Br)c(O)c(Br)c1 [Compound 5-a diBr],5,7,10,5,7,14,
